Assay results: patent US20240343704A1, “HALO-SUBSTITUTED AMINO PYRIDINE COMPOUNDS AS INHIBITORS OF THE HAEMATOPOIETIC PROGENITOR KINASE 1 (HPK1)” (priority 2021, published 2024)

These compounds were tested against T1, Recombinant (1-346) HPK1 (h) (Homo sapiens, UniProt Q92918) (assay: HPK1 Human STE Kinase Enzymatic Radiometric Assay). Conditions: read-out: HPK1 IC50 nM Range*.
T1 construct: Recombinant (1-346) HPK1 (h) is incubated with 8 mM MOPS pH 7.0
T1 sequence (Q92918 1-346): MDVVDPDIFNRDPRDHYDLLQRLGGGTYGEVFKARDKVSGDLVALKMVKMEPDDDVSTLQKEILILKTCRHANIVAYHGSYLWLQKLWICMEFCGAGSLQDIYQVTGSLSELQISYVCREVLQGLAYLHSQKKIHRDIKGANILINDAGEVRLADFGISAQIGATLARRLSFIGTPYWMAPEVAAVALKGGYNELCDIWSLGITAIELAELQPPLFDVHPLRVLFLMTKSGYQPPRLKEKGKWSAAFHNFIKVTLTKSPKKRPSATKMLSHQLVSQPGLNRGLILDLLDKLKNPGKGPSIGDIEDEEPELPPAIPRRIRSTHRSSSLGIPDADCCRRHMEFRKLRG
Type: biochemical
Experimental: A stock solution of 10 mM of test compound is prepared in DMSO. The compound plate was prepared by 3-fold and 9-point serial dilutions. […] The reaction is initiated by The addition of the Mg/ATP mix. After incubation for 40 minutes at RT, the reaction is stopped by the addition of phosphoric acid to a concentration of 0.5%.

SMILES	IC50
CN(C)Cc1nc(-c2cc(-c3ccc4c(=O)[nH]cc(F)c4c3)c(N)nc2F)ccc1N1CCOCC1 [I-589, 6-(6′-amino-6-((dimethylamino)methyl)-2′-fluoro-5-morpholino-[2,3′-bipyridin]-5′-yl)-4-fluoroisoquinolin-1(2H)-one]	0.1 to 10 nM
CC(C)(C)OC(=O)N1CCN(c2ccc(-c3cc(-c4ccc5c(c4)CCNC5=O)c(N)nc3F)nc2)CC1 [I-590, tert-butyl4-(6′-amino-2′-fluoro-5′-(1-oxo-1,2,3,4-tetrahydroisoquinolin-6-yl)-[2,3′-bipyridin]-5-yl) piperazine-1-carboxylate]	0.1 to 10 nM
CC(=O)N1CCN(c2ccc(-c3cc(-c4cc5c(cc4F)C(=O)NCC5)c(N)nc3F)nc2)CC1 [I-592, 6-(5-(4-acetylpiperazin-1-yl)-6′-amino-2′-fluoro-[2,3′-bipyridin]-5′-yl)-7-fluoro-3,4-dihydroisoquinolin-1(2H)-one]	0.1 to 10 nM
Nc1nc(F)c(-c2ccc(N3CCN(CCCC(F)F)CC3)cn2)cc1-c1ccc2c(c1)CCNC2=O [I-593, 6-(6′-amino-5-(4-(4,4-difluorobutyl)piperazin-1-yl)-2′-fluoro-[2,3′-bipyridin]-5′-yl)-3,4-dihydroisoquinolin-1(2H)-one]	0.1 to 10 nM
CN(C)Cc1cccc(-c2cc(-c3ccc4c(c3)CCNC4=O)c(N)nc2F)c1 [I-594, 6-(2-amino-5-(3-((dimethylamino)methyl)phenyl)-6-fluoropyridin-3-yl)-3,4-dihydroisoquinolin-1(2H)-one]	11 to 100 nM
Cc1nc2cc(-c3cc(-c4ccc(N5C[C@@H](C)O[C@@H](C)C5)c(CN(C)C)c4)c(F)nc3N)ccc2c(=O)[nH]1 [I-595, 7-(2-amino-5-(3-((dimethylamino)methyl)-4-((2R,6S)-2,6-dimethylmorpholino)phenyl)-6-fluoropyridin-3-yl)-2-methylquinazolin-4(3H)-one]	11 to 100 nM
C[C@@H]1CN(c2ccc(-c3cc(-c4cc(F)c5c(c4)CCNC5=O)c(N)nc3F)cc2CN(C)C)C[C@H](C)O1 [I-596, 6-(2-amino-5-(3-((dimethylamino)methyl)-4-((2R,6S)-2,6-dimethylmorpholino)phenyl)-6-fluoropyridin-3-yl)-8-fluoro-3,4-dihydroisoquinolin-1(2H)-one]	11 to 100 nM
C[C@@H]1CN(c2ccc(-c3cc(-c4cc5c(cc4F)C(=O)NCC5)c(N)nc3F)cc2CN(C)C)C[C@H](C)O1 [I-597, 6-(2-amino-5-(3-((dimethylamino)methyl)-4-((2R,6S)-2,6-dimethylmorpholino)phenyl)-6-fluoropyridin-3-yl)-7-fluoro-3,4-dihydroisoquinolin-1(2H)-one]	11 to 100 nM
C[C@H]1CN(c2ccc(-c3cc(-c4ccc5c(c4)CCNC5=O)c(N)nc3F)cc2CN2CCC2)CCO1 [I-598, (S)-6-(2-amino-5-(3-(azetidin-1-ylmethyl)-4-(2-methylmorpholino)phenyl)-6-fluoropyridin-3-yl)-3,4-dihydroisoquinolin-1(2H)-one]	11 to 100 nM
C[C@H]1CN(c2ccc(-c3cc(-c4cc5c(cc4F)C(=O)NCC5)c(N)nc3F)cc2CN2CCC2)CCO1 [I-599, (S)-6-(2-amino-5-(3-(azetidin-1-ylmethyl)-4-(2-methylmorpholino)phenyl)-6-fluoropyridin-3-yl)-7-fluoro-3,4-dihydroisoquinolin-1(2H)-one]	11 to 100 nM
CN(C)Cc1nc(-c2cc(-c3ccc4c(c3)CCNC4=O)c(N)nc2F)ccc1C1CCOCC1 [I-600, 6-(6′-amino-6-((dimethylamino)methyl)-2′-fluoro-5-(tetrahydro-2H-pyran-4-yl)-[2,3′-bipyridin]-5′-yl)-3,4-dihydroisoquinolin-1(2H)-one]	0.1 to 10 nM
CN(C)Cc1nc(-c2cc(-c3cc4c(cc3F)C(=O)NCC4)c(N)nc2F)ccc1C1CCOCC1 [I-601, 6-(6′-amino-6-((dimethylamino)methyl)-2′-fluoro-5-(tetrahydro-2H-pyran-4-yl)-[2,3′-bipyridin]-5′-yl)-7-fluoro-3,4-dihydroisoquinolin-1(2H)-one]	0.1 to 10 nM
Nc1nc(F)c(-c2ccc(C3CCOCC3)c(CN3CCC3)n2)cc1-c1cc2c(cc1F)C(=O)NCC2 [I-602, 6-(6′-amino-6-(azetidin-1-ylmethyl)-2′-fluoro-5-(tetrahydro-2H-pyran-4-yl)-[2,3′-bipyridin]-5′-yl)-7-fluoro-3,4-dihydroisoquinolin-1(2H)-one]	0.1 to 10 nM
CCN(C)Cc1nc(-c2cc(-c3ccc4c(c3)CCNC4=O)c(N)nc2F)ccc1C1CCOCC1 [I-603, 6-(6′-amino-6-((ethyl(methyl)amino)methyl)-2′-fluoro-5-(tetrahydro-2H-pyran-4-yl)-[2,3′-bipyridin]-5′-yl)-3,4-dihydroisoquinolin-1(2H)-one]	0.1 to 10 nM
CCN(C)Cc1nc(-c2cc(-c3cc4c(cc3F)C(=O)NCC4)c(N)nc2F)ccc1C1CCOCC1 [I-604, 6-(6′-amino-6-((ethyl(methyl)amino)methyl)-2′-fluoro-5-(tetrahydro-2H-pyran-4-yl)-[2,3′-bipyridin]-5′-yl)-7-fluoro-3,4-dihydroisoquinolin-1(2H)-one]	0.1 to 10 nM
Nc1nc(F)c(-c2ccc(C3CCOCC3)c(CN3CCC3)n2)cc1-c1ccc2c(c1)CCNC2=O [I-605, 6-(6′-amino-6-(azetidin-1-ylmethyl)-2′-fluoro-5-(tetrahydro-2H-pyran-4-yl)-[2,3′-bipyridin]-5′-yl)-3,4-dihydroisoquinolin-1(2H)-one]	0.1 to 10 nM
CN(C)Cc1c(N2CCOCC2)ccc(-c2cc(-c3ccc4c(c3)CCNC4=O)c(N)nc2F)c1F [I-606, 6-(2-amino-5-(3-((dimethylamino)methyl)-2-fluoro-4-morpholinophenyl)-6-fluropyridin-3-yl)-3,4-dihydroisoquinolin-1(2H)-one]	11 to 100 nM
CN(C)Cc1c(N2CCOCC2)ccc(-c2cc(-c3cc4c(cc3F)C(=O)NCC4)c(N)nc2F)c1F [I-607, 6-(2-amino-5-(3-((dimethylamino)methyl)-2-fluoro-4-morpholinophenyl)-6-fluoropyridin-3-yl)-7-fluoro-3,4-dihydroisoquinolin-1(2H)-one]	11 to 100 nM
Nc1nc(F)c(-c2ccc(N3CCOCC3)c(CN3CCC3)c2F)cc1-c1cc2c(cc1F)C(=O)NCC2 [I-608, 6-(2-amino-5-(3-(azetidin-1-ylmethyl)-2-fluoro-morpholinophenyl)-6-fluoropyridin-3-yl)-7-fluoro-3,4-dihydroisoquinolin-1(2H)-one]	11 to 100 nM
CCN(C)Cc1c(N2CCOCC2)ccc(-c2cc(-c3ccc4c(c3)CCNC4=O)c(N)nc2F)c1F [I-610, 6-(2-amino-5-(3-((ethyl(methyl)amino)methyl)-2-fluoro-4-morpholinophenyl)-6-fluoropyridin-3-yl)-3,4-dihydroisoquinolin-1(2H)-one]	11 to 100 nM
CCN(C)Cc1c(N2CCOCC2)ccc(-c2cc(-c3cc4c(cc3F)C(=O)NCC4)c(N)nc2F)c1F [I-611, 6-(2-amino-5-(3-((ethyl(methyl)amino)methyl)-2-fluoro-4-morpholinophenyl)-6-fluoropyridin-3-yl)-7-fluoro-3,4-dihydroisoquinolin-1(2H)-one]	11 to 100 nM
CN(C)Cc1cc(-c2cc(-c3ccc4c(c3)CCNC4=O)c(N)nc2F)cnc1N1CCOCC1 [I-612, 6-(6-amino-5′-((dimethylamino)methyl)-2-fluoro-6′-morpholino-[3,3′-bipyridin]-5-yl)-3,4-dihydroisoquinolin-1(2H)-one]	11 to 100 nM
CN(C)Cc1cc(-c2cc(-c3ccc4c(c3)CCNC4=O)c(N)nc2F)ncc1N1CCOCC1 [I-613, 6-(6′-amino-4-((dimethylamino)methyl)-2′-fluoro-5-morpholino-[2,3′-bipyridin]-5′-yl)-3,4-dihydroisoquinolin-1(2H)-one]	11 to 100 nM
CC(C)N(C)Cc1cc(-c2cc(-c3ccc4c(c3)CCNC4=O)c(N)nc2F)ccc1N1CCOCC1 [I-614, 6-(2-amino-6-fluoro-5-(3-((isopropyl(methyl)amino)methyl)-4-morpholinoophenyl)pyridin-3-yl)-3,4-dihydroisoquinolin-1(2H)-one]	11 to 100 nM
CCN(CC)Cc1cc(-c2cc(-c3ccc4c(c3)CCNC4=O)c(N)nc2F)ccc1N1CCOCC1 [I-615, 6-(2-amino-5-(3-((diethylamino)methyl)-4-morpholinophenyl)-6-fluoropyridin-3-yl)-3,4-dihydroisoquinolin-1(2H)-one]	0.1 to 10 nM
CN(Cc1cc(-c2cc(-c3ccc4c(c3)CCNC4=O)c(N)nc2F)ccc1N1CCOCC1)CC1CCCO1 (stereo not shown) [I-616, 6-(2-amino-6-fluoro-5-(3-((methyl((tetrahydrofuran-2-yl)methyl)amino)methyl)-4-morpholinophenyl)pyridin-3-yl)-3,4-dihydroisoquinolin-1(2H)-one]	0.1 to 10 nM
CN(C)Cc1cc(-c2cc(-c3ccc4c(c3)CCNC4=O)c(N)nc2F)ccc1F [I-617, 6-(2-amino-5-(3-((dimethylamino)methyl)-4-fluorophenyl)-6-fluoropyridin-3-yl)-3,4-dihydroisoquinolin-1(2H)-one]	11 to 100 nM
CN(C)Cc1cc(-c2cc(-c3cc4c(cc3F)C(=O)NCC4)c(N)nc2F)ccc1F [I-618, 6-(2-amino-5-(3-((dimethylamino)methyl)-4-fluorophenyl)-6-fluoropyridin-3-yl)-7-fluoro-3,4-dihydroisoquinolin-1(2H)-one]	11 to 100 nM
